Data published in patent US10752587B2, “Homobispiperidinyl derivatives as liver X receptor beta agonists, compositions and their use” (Merck Sharp & Dohme Corp., priority 2015, dated 2020).
Read-outs that look alike come from different tables or passages of the source.

Tests used:
[1] = molecular target: T1, glutathione-S-transferase (GST) tagged LXRalpha LBD (ligand binding domain) (Homo sapiens, UniProt Q13133); experiment: LanthaScreen TR-FRET Liver X Receptor Coactivator Assay, co-activator recruitment to LXRalpha LBD; type: biochemical; conditions: for Emax: read-out: LXR alpha Activity @ max dose (%); for EC50 / LXR alpha IP (nM): potency (Inflection Point, IP), co-activator recruitment to LXRalpha LBD, in relation to T0901317; for EC50: read-out: LXR alpha IP
T1 construct: purchased Invitrogen pv4655
T1 sequence (Q13133 209-447 limits assumed): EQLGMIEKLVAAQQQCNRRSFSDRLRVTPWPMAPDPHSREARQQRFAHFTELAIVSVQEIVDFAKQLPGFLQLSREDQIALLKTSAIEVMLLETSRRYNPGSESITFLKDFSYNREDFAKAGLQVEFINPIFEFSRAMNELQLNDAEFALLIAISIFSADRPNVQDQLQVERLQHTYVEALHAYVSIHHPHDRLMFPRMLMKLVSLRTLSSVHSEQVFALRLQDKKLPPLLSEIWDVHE
In short: (§1)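 GST-tagged LBD added to test compound, then fluorescein-labelled coactivator peptide plus terbium anti-GST antibody; incubated at room temperature, TR-FRET read. Potency given as inflection point and efficacy as Emax relative to reference dual agonist T0901317.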

[2] = molecular target: T2, glutathione-S-transferase (GST) tagged LXRbeta LBD (ligand binding domain) (Homo sapiens, UniProt P55055); experiment: LanthaScreen TR-FRET Liver X Receptor Coactivator Assay, co-activator recruitment to LXRbeta LBD; type: biochemical; conditions: for Emax: read-out: LXR beta Activity @ max dose (%); for EC50: potency (Inflection Point, IP), co-activator recruitment to LXRbeta LBD, in relation to T0901317, read-out: LXR beta IP
T2 construct: purchased Invitrogen pv4658.pps
T2 sequence (P55055 222-460 limits assumed): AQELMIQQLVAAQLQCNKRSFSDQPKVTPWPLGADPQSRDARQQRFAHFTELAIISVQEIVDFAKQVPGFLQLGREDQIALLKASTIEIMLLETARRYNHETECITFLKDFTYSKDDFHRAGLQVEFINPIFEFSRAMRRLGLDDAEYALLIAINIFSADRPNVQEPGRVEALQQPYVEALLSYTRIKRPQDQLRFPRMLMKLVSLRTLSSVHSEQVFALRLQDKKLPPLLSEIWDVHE
In short: as §1

[3] = efficacy at max dose, in relation to reference dual agonist T0901317

SMILES | Emax [1, 3] [%] | EC50 [1] [nM] | Emax [2, 3] [%] | EC50 [2] [nM] | LXR alpha IP (nM) [1] | Emax [1] [%] | Emax [2] [%]
CN(C)C(=O)c1ccc(N2CCC(CC3CN(C(=O)C(O)(c4cccc(Cl)c4)C(F)(F)F)C3)CC2)cc1Cl (stereo not drawn) [Example 2-65, 2-chloro-4-[4-({1-[2-(3-chlorophenyl)-3,3,3-trifluoro-2-hydroxy-propanoyl]azetidin-3-yl}methyl)piperidin-1-yl]-N,N-dimethyl-benzamide] | 35 | 694 | 89 | 17 | – | – | –
Cc1cccc([C@@](O)(C(=O)N2CCC(CC3CCN(c4ccc(C(=O)N(C)C)c(Cl)c4)CC3)CC2)C(F)(F)F)c1 [Example 2-112, 2-chloro-N,N-dimethyl-4-[4-({1-[(2R)-3,3,3-trifluoro-2-hydroxy-2-(3-methylphenyl)propanoyl]piperidin-4-yl}methyl)piperidin-1-yl]benzamide] | 10 | – | 44 | 8 | NO IP | – | –
Cc1cc(N2CCC(CC3CCN(C(=O)C(O)(c4cccc(Cl)c4)C(F)(F)F)CC3)CC2)ncc1C(=O)N(C)C (stereo not drawn) [Example 7-4, 6-[4-({1-[2-(3-chlorophenyl)-3,3,3-trifluoro-2-hydroxypropanoyl]piperidin-4-yl}methyl)piperidin-1-yl]-N,N,4-trimethylpyridine-3-carboxamide] | – | 1330 | – | 52 | – | 19 | 63
CN(C)C(=O)c1ccc(N2CCC(CC3(C)CCN(C(=O)[C@](O)(c4cc(Cl)cc(Cl)c4)C(F)(F)F)CC3)CC2)cc1Cl [Example 2-53, 2-chloro-4-[4-({1-[(2R)-2-(3,5-dichloro-phenyl)-3,3,3-trifluoro-2-hydroxy-propanoyl]-4-methylpiperidin-4-yl}methyl)piperidin-1-yl]-N,N-dimethyl-benzamide] | 0 | – | 50 | 5 | NO IP | – | –
CN(C)C(=O)c1ccc(N2CCC(CC3CCN(C(=O)C(O)(c4ccc(C(F)(F)F)cc4)C(F)(F)F)CC3)CC2)cc1Cl (stereo not drawn) [Example 2-16, 2-chloro-N,N-dimethyl-4-{4-[(1-{3,3,3-trifluoro-2-hydroxy-2-[4-(trifluoromethyl)phenyl]propanoyl}piperidin-4-yl)methyl]piperidin-1-yl} benzamide] | 0 | – | 15 | 598 | NO IP | – | –
CN(C)C(=O)c1ccc(N2CCC(CC3(C)CCN(C(=O)[C@](O)(c4cccc(OC(F)(F)F)c4)C(F)(F)F)CC3)CC2)cc1Cl [Example 2-51, 2-chloro-N,N-dimethyl-4-{4-[(4-methyl-1-{(2R)-3,3,3-trifluoro-2-hydroxy-2-[3-(trifluoro-methoxy)phenyl]propanoyl}piperidin-4-yl)methyl]piperidin-1-yl}benzamide] | 11 | – | 57 | 32 | NO IP | – | –
Cc1cc(N2CCC(CC3CCN(C(=O)[C@](O)(c4ccccc4)C(F)(F)F)CC3)CC2)ccc1C(=O)N(C)C [Example 2-155, N,N,2-trimethyl-4-[4-({1-[(2R)-3,3,3-trifluoro-2-hydroxy-2-phenyl-propanoyl]piperidin-4-yl}methyl)piperidin-1-yl]benzamide] | 33 | 386 | 69 | 25 | – | – | –

Second part, led by results:

Emax [1, 3] [%] | EC50 [1] [nM] | Emax [2, 3] [%] | EC50 [2] [nM] | LXR alpha IP (nM) [1] | SMILES | Emax [1] [%] | Emax [2] [%]
46 | 40 | 109 | 2 | – | CN(C)C(=O)c1ccc(N2CCC(CC3(C)CCN(C(=O)[C@](O)(c4cc(F)cc(Cl)c4)C(F)(F)F)CC3)CC2)nc1Cl [Example 7-46, 2-chloro-6-[4-({1-[(2R)-2-(3-chloro-5-fluorophenyl)-3,3,3-trifluoro-2-hydroxypropanoyl]-4-methylpiperidin-4-yl}methyl)piperidin-1-yl]-N,N-dimethylpyridine-3-carboxamide] | – | –
11 | – | 70 | 46 | NO IP | Cc1cccc(C(O)(C(=O)N2CCC(CC3CCN(c4ccc(C(=O)N(C)C)c(C)n4)CC3)CC2)C(F)(F)F)c1 (stereo not drawn) [Example 7-6, N,N,2-trimethyl-6-[4-({1-[3,3,3-trifluoro-2-hydroxy-2-(3-methylphenyl)propanoyl]piperidin-4-yl}methyl)piperidin-1-yl]pyridine-3-carboxamide] | – | –
25 | 784 | 78 | 96 | – | CNC(=O)c1ccc(N2CCC(CC3CCN(C(=O)C(O)(c4cccc(C(F)(F)F)c4)C(F)(F)F)CC3)CC2)cc1Cl (stereo not drawn) [Example 7-35, 2-chloro-N-methyl-4-{4-[(1-{3,3,3-trifluoro-2-hydroxy-2-[3-(trifluoromethyl)phenyl]propanoyl}piperidin-4-yl)methyl]piperidin-1-yl}benzamide] | – | –
19 | 663 | 80 | 57 | – | CN(C)C(=O)c1ccc(N2CCC(CC3CCN(C(=O)C4(c5ccccc5)CCCC4)CC3)CC2)nc1Cl [Example 7-64, 2-chloro-N,N-dimethyl-6-[4-({1-[(1-phenylcyclopentyl)carbonyl]piperidin-4-yl}methyl)piperidin-1-yl]pyridine-3-carboxamide] | – | –
34 | 442 | 80 | 6 | – | COc1nc(N2CCC(CC3CCN(C(=O)[C@](O)(c4ccccc4)C(F)(F)F)CC3)CC2)ccc1C(=O)N(C)C [Example 7-18, 2-methoxy-N,N-dimethyl-6-[4-({1-[(2R)-3,3,3-trifluoro-2-hydroxy-2-phenylpropanoyl]piperidin-4-yl}methyl)piperidin-1-yl] pyridine-3-carboxamide] | – | –
52 | 58 | 74 | 9 | – | NC(=O)c1ccc(N2CCC(CC3CCN(C(=O)[C@](O)(c4ccccc4)C(F)(F)F)CC3)CC2)cc1Cl [Example 12-2, 2-chloro-4-[4-({1-[(2R)-3,3,3-trifluoro-2-hydroxy-2-phenyl-propanoyl]piperidin-4-yl}methyl)piperidin-1-yl]benzamide] | – | –
48 | 1590 | 108 | 83 | – | CN(C)C(=O)c1ccc(N2CCC(CC3CCN(C(=O)C(O)(c4cccnc4)C(F)(F)F)CC3)CC2)nc1Cl (stereo not drawn) [Example 7-66, 2-chloro-N,N-dimethyl-6-(4-{[1-(3,3,3-trifuoro-2-hydroxy-2-pyridin-3-ylpropanoyl)piperidin-4-yl]methyl}piperidin-1-yl)pyridine-3-carboxamide] | – | –
52 | 51 | 107 | 4 | – | CN(C)C(=O)c1ccc(N2CCC(CC3CCN(C(=O)C(O)(c4cc(F)cc(Cl)c4)C(F)(F)F)CC3)CC2)nc1Cl (stereo not drawn) [Example 7-109, 2-chloro-6-[4-({1-[2-(3-chloro-5-fluorophenyl)-3,3,3-trifluoro-2-hydroxypropanoyl]piperidin-4-yl}methyl)piperidin-1-yl]-N,N-dimethyl-pyridine-3-carboxamide] | – | –
0 | – | 40 | 3 | NO IP | CC(C)(C)OC(=O)NC1CN(C(=O)c2ccc(N3CCC(CC4CCN(C(=O)[C@](O)(c5cc(Cl)cc(Cl)c5)C(F)(F)F)CC4)CC3)cc2Cl)C1 [Example 4-25, tert-butyl [1-({2-chloro-4-[4-({1-[(2R)-2-(3,5-dichlorophenyl)-3,3,3-trifluoro-2-hydroxypropanoyl]piperidin-4-yl}methyl)piperidin-1-yl]phenyl}carbonyl)azetidin-3-yl]carbamate] | – | –
0 | – | 41 | 5 | NO IP | CN(C)C(=O)c1ccc(N2CCC(CC3CCN(C(=O)[C@](O)(c4cccc(OC5CC5)c4)C(F)(F)F)CC3)CC2)nc1Cl [Example 7-106, 2-chloro-6-{4-[(1-{(2R)-2-[3-(cyclopropyloxy)phenyl]-3,3,3-trifluoro-2-hydroxypropanoyl}piperidin-4-yl)methyl]piperidin-1-yl}-N,N-dimethylpyridine-3-carboxamide] | – | –
8 | – | 75 | 34 | NO IP | CCOc1cccc([C@@](O)(C(=O)N2CC(CC3CCN(c4ccc(C(=O)N(C)C)c(Cl)n4)CC3)C2)C(F)(F)F)c1 [Example 7-44, 2-chloro-6-[4-({1-[(2R)-2-(3-ethoxyphenyl)-3,3,3-trifluoro-2-hydroxypropanoyl]azetidin-3-yl}methyl)piperidin-1-yl]-N,N-dimethylpyridine-3-carboxamide] | – | –
